Key:
[1] = tested on: soluble epoxide hydrolase (sEH); assay: Fluorescent assay for mouse and human soluble epoxide hydrolase (CMNPC substrate); format: biochemical, mouse or human, not specified
Description: Fluorescent Assay for Mouse and Human Soluble Epoxide Hydrolase Recombinant mouse sEH (MsEH) and human sEH (HsEH) were produced in a baculovirus expression system as previously reported. Grant et al., J. Biol. Chem., 268:17628-17633 (1993); Beetham et al., Arch. Biochem. Biophys., 305:197-201 (1993). The expressed proteins were purified from cell lysate by affinity chromatography. Wixtrom et al., Anal. Biochem., 169:71-80 (1988). Protein concentration was quantified using the Pierce BCA assay using bovine serum albumin as the calibrating standard. […] They contained no detectable esterase or glutathione transferase activity which can interfere with the assay. The assay was also evaluated with similar results in crude cell lysates or homogenate of tissues. The IC50s for each inhibitor were determined according to the following procedure: Substrate: [drawing 155] […] Jones P. D. et al.; Analytical Biochemistry 2005; 343: pp. 66-75) Solutions: Bis/Tris HCl 25 mM pH 7.0 containing 0.1 mg/mL of BSA (buffer […] at 0.25 mM in DMSO. Mother solution of enzyme in buffer A (Mouse sEH at 6 μg/mL and Human sEH at 5 μg/mL). Inhibitor dissolved in DMSO at the appropriate concentration. Protocol: In a black 96 well plate, fill all the wells with 150 μL of buffer A. Add 2 μL of DMSO in well A2 and A3, and then add 2 μL of inhibitor solution in A1 and A4 through A12. Add 150 μL of buffer A in row A, then mix several time and transfer 150 μL to row B. Repeat this operation up to row H. The 150 μL removed from row H is discarded. Add 20 μL of buffer A in column 1 and 2, then add 20 μL of enzyme solution to column 3 to 12. Incubate the plate for 5 minutes in the plate reader at 30° C. During incubation prepare the working solution of substrate by mixing 3.68 mL of buffer A (4×0.920 mL) with 266 μL (2×133 μL) of substrate solution). At t=0, add 30 μL of working substrate solution with multi-channel pipette labeled “Briggs 303” and start the reading ([S]final: 5 μM). Read with ex: 330 nm (20 nm) and em: 465 nm (20 nm) every 30 second for 10 minutes. The velocities are used to analyze and calculate the IC50s.

SMILES	% Inhibition ([1]; Conc 50 nM) [%]	other results
CC(C)(C)S(=O)(=O)N1CCC(NC(=O)Nc2ccc(C(F)(F)F)cc2)CC1 [Compound 54, 1-(1-(tert-butylsulfonyl)piperidin-4-yl)-3-(4-(trifluoromethyl)phenyl)urea]		% Inhibition ([1]; Conc 200 nM): 97%; melting point: 260 to 261 °C
O=C(Nc1cccc(C(F)(F)F)c1)NC1CCN(S(=O)(=O)c2ccc(C(F)(F)F)cc2)CC1 [Compound 29, 1-[1-(4-Trifluoromethyl-benzenesulfonyl)-piperidin-4-yl]-3-(3-trifluoromethyl-phenyl)-urea]	95	
O=C(Nc1ccc(F)cc1)NC1CCN(S(=O)(=O)c2cccc(C(F)(F)F)c2)CC1 [Compound 12, 1-(4-Fluoro-phenyl)-3-[1-(3-trifluoromethyl-benzenesulfonyl)-piperidin-4-yl]-urea]	90	
CC(=O)N1CCC(NC(=O)Nc2ccccc2)CC1 [ComparativeExample 5, 1-(1-Acetyl-piperidin-4-yl)-3-phenyl-urea, reference compound]		% Inhibition ([1]; Conc 5000 nM): 80%
O=C(Nc1cccc(C(F)(F)F)c1)NC1CCN(S(=O)(=O)c2ccc(Cl)cc2)CC1 [Compound 30, 1-[1-(4-Chloro-benzenesulfonyl)-piperidin-4-yl]-3-(3-trifluoromethyl-phenyl)-urea]	90	melting point: 116 to 118 °C
CC(C)(Oc1ccc(C(=O)N2CCC(NC(=O)Nc3ccc(C(F)(F)F)cc3)CC2)cc1)C(=O)O [Compound 40, 2-Methyl-2-(4-(4-(3-(4-(trifluoromethyl)phenyl)ureido)piperidine-1-carbonyl)phenoxy)propanoic acid]	68	melting point: 197 to 199 °C
O=C(Nc1ccc(C(F)(F)F)cc1)NC1CCN(S(=O)(=O)c2ccc(C(=O)O)cc2)CC1 [Compound 16, 4-{4-[3-(4-Trifluoromethyl-phenyl)-ureido]-piperidine-1-sulfonyl}-benzoic acid]	80	
O=C(Nc1ccccc1)NC1CCN(C(=O)CCCN2CCOCC2)CC1 [ComparativeExample 1, 1-[1-(4-Morpholin-4-yl-butyryl)-piperidin-4-yl]-3-phenyl-urea, reference compound]		% Inhibition ([1]; Conc 5000 nM): 96%
O=C(Nc1ccc(F)c(F)c1)NC1CCN(C(=O)CCCN2CCOCC2)CC1 [Compound 2, 1-(3,4-Difluoro-phenyl)-3-[1-(4-morpholin-4-yl-butyryl)-piperidin-4-yl]-urea]		% Inhibition ([1]; Conc 500 nM): 70%
CC(C)C(=O)N1CCC(NC(=O)Nc2ccc(C(F)(F)F)cc2)CC1 [Compound 45, 1-(1-isobutyrylpiperidin-4-yl)-3-(4-(trifluoromethyl)phenyl)urea]		% Inhibition ([1]; Conc 200 nM): 97%
O=C(Nc1cccc(C(F)(F)F)c1)NC1CCN(S(=O)(=O)c2ccccc2)CC1 [Compound 26, 1-(1-Benzenesulfonyl-piperidin-4-yl)-3-(3-trifluoromethyl-phenyl)-urea]	90	
O=C(Nc1ccc(C(F)(F)F)cc1)NC1CCN(S(=O)(=O)c2ccc(Cl)cc2)CC1 [Compound 18, 1-[1-(4-Chloro-benzenesulfonyl)-piperidin-4-yl]-3-(4-trifluoromethyl-phenyl)-urea]	90	
Cn1cnc(C(=O)N2CCC(NC(=O)Nc3ccc(C(F)(F)F)cc3)CC2)c1 [Compound 35, 1-[1-(1-Methyl-1H-imidazole-4-carbonyl)-piperidin-4-yl]-3-(4-trifluoromethyl-phenyl)-urea]	89	
CC(C)C(=O)N1CCC(NC(=O)Nc2ccc(Br)cc2)CC1 [Compound 46, 1-(4-bromophenyl)-3-(1-isobutyrylpiperidin-4-yl)urea]		melting point: 193 to 204 °C
O=C(Nc1ccc(F)cc1)NC1CCN(S(=O)(=O)c2ccc(C(F)(F)F)cc2)CC1 [Compound 14, 1-(4-Fluoro-phenyl)-3-[1-(4-trifluoromethyl-benzenesulfonyl)-piperidin-4-yl]-urea]	89	
CC(C)S(=O)(=O)N1CCC(NC(=O)Nc2ccc(Br)cc2)CC1 [Compound 44, 1-(4-bromophenyl)-3-(1-(isopropylsulfonyl)piperidin-4-yl)urea]		melting point: 240 to 242 °C
O=C(Nc1ccc(C(F)(F)F)cc1)NC1CCN(C(=O)c2ccccn2)CC1 [Compound 9, 1-[1-(Pyridine-2-carbonyl)-piperidin-4-yl]-3-(4-trifluoromethyl-phenyl)-urea]	94	

SMILES	% Inhibition ([1]; Conc 50 nM) [%]	other results
O=C(Nc1ccc(F)cc1)NC1CCN(S(=O)(=O)c2ccccc2)CC1 [Compound 13, 1-(1-Benzenesulfonyl-piperidin-4-yl)-3-(4-fluoro-phenyl)-urea]	79	
O=C(Nc1ccc(Cl)cc1)NC1CCN(S(=O)(=O)c2ccc(C(=O)O)cc2)CC1 [Compound 15, 4-{4-[3-(4-Chloro-phenyl)-ureido]-piperidine-1-sulfonyl}-benzoic acid]	75	
O=C(Nc1ccc(F)cc1)NC1CCN(C(=O)c2ccc(C(=O)O)cc2)CC1 [Compound 10, 4-{4-[3-(4-Fluoro-phenyl)-ureido]-piperidine-1-carbonyl}-benzoic acid]	75	
CC(C)(C)CC(=O)N1CCC(NC(=O)Nc2ccc(C(F)(F)F)cc2)CC1 [Compound 48, 1-(1-(3,3-dimethylbutanoyl)piperidin-4-yl)-3-(4-(trifluoromethyl)phenyl)urea]		% Inhibition ([1]; Conc 200 nM): 100%
CC(=O)N1CCC(NC(=O)Nc2ccc(Br)cc2)CC1 [Compound 43, 1-(1-acetylpiperidin-4-yl)-3-(4-bromophenyl)urea]		melting point: 213 to 216 °C
O=C(Nc1ccc(Cl)cc1)NC1CCN(C(=O)Cc2c[nH]cn2)CC1 [Compound 34, 1-(4-Chloro-phenyl)-3-[1-(2-1H-imidazol-4-yl-acetyl)-piperidin-4-yl]-urea]		% Inhibition ([1]; Conc 500 nM): 80%
O=C(Nc1ccc(C(F)(F)F)cc1)NC1CCN(C(=O)c2ccc(C(=O)O)cc2)CC1 [Compound 11, 4-{4-[3-(4-Trifluoromethyl-phenyl)-ureido]-piperidine-1-carbonyl}-benzoic acid]	98	
O=C(Nc1ccc(C(F)(F)F)cc1)NC1CCN(C(=O)c2cccnc2)CC1 [Compound 8, 1-[1-(Pyridine-3-carbonyl)-piperidin-4-yl]-3-(4-trifluoromethyl-phenyl)-urea]	94	
O=C(Nc1ccc(C(F)(F)F)cc1)NC1CCN(S(=O)(=O)c2cccc(C(F)(F)F)c2)CC1 [Compound 20, 1-[1-(3-Trifluoromethyl-benzenesulfonyl)-piperidin-4-yl]-3-(4-trifluoromethyl-phenyl)-urea]	96	
CC(C)S(=O)(=O)N1CCC(NC(=O)Nc2ccc(C(F)(F)F)cc2)CC1 [Compound 42, 1-(1-(Isopropylsulfonyl)piperidin-4-yl)-3-(4-(trifluoromethyl)phenyl)urea]	93	
O=C(Nc1ccc(F)cc1)NC1CCN(C(=O)c2cccnc2)CC1 [Compound 7, 1-(4-Fluoro-phenyl)-3-[1-(pyridine-3-carbonyl)-piperidin-4-yl]-urea]		% Inhibition ([1]; Conc 500 nM): 89%
CC(=O)N1CCC(NC(=O)Nc2cccc(C(F)(F)F)c2)CC1 [Compound 25, 1-(1-Acetyl-piperidin-4-yl)-3-(3-trifluoromethyl-phenyl)-urea]	68	
CS(=O)(=O)N1CCC(NC(=O)Nc2cccc(C(F)(F)F)c2)CC1 [Compound 24, 1-(1-Methanesulfonyl-piperidin-4-yl)-3-(3-trifluoromethyl-phenyl)-urea]	86	
CC(C)CC(=O)N1CCC(NC(=O)Nc2ccc(C(F)(F)F)cc2)CC1 [Compound 6, 1-[1-(3-Methyl-butyryl)-piperidin-4-yl]-3-(4-trifluoromethyl-phenyl)-urea]	94	
O=C(Nc1ccc(C(F)(F)F)cc1)NC1CCN(S(=O)(=O)c2ccccc2)CC1 [Compound 17, 1-(1-Benzenesulfonyl-piperidin-4-yl)-3-(4-trifluoromethyl-phenyl)-urea]	90	
O=C(Nc1ccc(C(F)(F)F)cc1)NC1CCN(C(=O)Cc2c[nH]cn2)CC1 [Compound 33, 1-[1-(2-1H-Imidazol-4-yl-acetyl)-piperidin-4-yl]-3-(4-trifluoromethyl-phenyl)-urea]	72	

Source: US20080221100A1, “SOLUBLE EPOXIDE HYDROLASE INHIBITORS” (Arete Therapeutics, Inc., priority 2006, published 2008)
